From the supplement of paper PMC10307832

How the values were obtained:
Assay in all cases: relative viability (nuclei count vs DMSO), 5 days (fraction); higher = more cells survive
BEN = test system: BEN
In short: (§1)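 Relative viability equals treated-well nuclei counts divided by vehicle-well nuclei counts. Counts came from 4× images of lung cancer cell lines grown in 1536-well plates for 5 days after pin-tool dosing on the day after seeding. Dosing used one drug alone or a fixed anchor-drug dose plus five library-drug doses (not always all listed) in √10 steps, and values are medians of duplicate plates.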

ChaGo-K-1 = test system: ChaGo-K-1
In short: as §1

HCC-78 = test system: HCC-78
In short: as §1

LC-2-ad = test system: LC-2-ad
In short: as §1

LCLC-97TM1 = test system: LCLC-97TM1
In short: as §1

LK-2 = test system: LK-2
In short: as §1

LU99A = test system: LU99A
In short: as §1

LXF-289 = test system: LXF-289
In short: as §1

NCI-H1355 = test system: NCI-H1355
In short: as §1

NCI-H1651 = test system: NCI-H1651
In short: as §1

NCI-H1666 = test system: NCI-H1666
In short: as §1

NCI-H1944 = test system: NCI-H1944
In short: as §1

NCI-H1975 = test system: NCI-H1975
In short: as §1

NCI-H2087 = test system: NCI-H2087
In short: as §1

NCI-H2342 = test system: NCI-H2342
In short: as §1

NCI-H358 = test system: NCI-H358
In short: as §1

NCI-H596 = test system: NCI-H596
In short: as §1

NCI-H650 = test system: NCI-H650
In short: as §1

NCI-H661 = test system: NCI-H661
In short: as §1

NCI-H838 = test system: NCI-H838
In short: as §1

PC-3 [JPC-3] = test system: PC-3 [JPC-3]
In short: as §1

SK-MES-1 = test system: SK-MES-1
In short: as §1

## COc1nc(C)cnc1NS(=O)(=O)c1cccnc1-c1ccc(-c2nnco2)cc1 [Zibotentan] + O=C(c1cc(Cc2n[nH]c(=O)c3ccccc23)ccc1F)N1CCN(C(=O)C2CC2)CC1 [Olaparib] (partner 8 µM)
BEN; first compound 0.08 µM
  relative viability: 1.15
BEN; first compound 0.253 µM
  relative viability: 1.09
BEN; first compound 0.8 µM
  relative viability: 1.09
BEN; first compound 2.53 µM
  relative viability: 0.958
ChaGo-K-1; first compound 0.08 µM
  relative viability: 0.393
ChaGo-K-1; first compound 0.253 µM
  relative viability: 0.396
ChaGo-K-1; first compound 0.8 µM
  relative viability: 0.322
ChaGo-K-1; first compound 2.53 µM
  relative viability: 0.393
HCC-78; first compound 0.08 µM
  relative viability: 0.949
HCC-78; first compound 0.253 µM
  relative viability: 0.748
HCC-78; first compound 0.8 µM
  relative viability: 0.719
HCC-78; first compound 2.53 µM
  relative viability: 0.736
LC-2-ad; first compound 0.08 µM
  relative viability: 0.68
LC-2-ad; first compound 0.253 µM
  relative viability: 0.682
LC-2-ad; first compound 0.8 µM
  relative viability: 0.721
LC-2-ad; first compound 2.53 µM
  relative viability: 0.71
LCLC-97TM1; first compound 0.08 µM
  relative viability: 0.383
LCLC-97TM1; first compound 0.253 µM
  relative viability: 0.393
LCLC-97TM1; first compound 0.8 µM
  relative viability: 0.433
LCLC-97TM1; first compound 2.53 µM
  relative viability: 0.385
LK-2; first compound 0.08 µM
  relative viability: 0.945
LK-2; first compound 0.253 µM
  relative viability: 0.521
LK-2; first compound 0.8 µM
  relative viability: 0.75
LK-2; first compound 2.53 µM
  relative viability: 0.718
LU99A; first compound 0.08 µM
  relative viability: 0.269
LU99A; first compound 0.253 µM
  relative viability: 0.259
LU99A; first compound 0.8 µM
  relative viability: 0.181
LU99A; first compound 2.53 µM
  relative viability: 0.255
LXF-289; first compound 0.08 µM
  relative viability: 1.01
LXF-289; first compound 0.253 µM
  relative viability: 1
LXF-289; first compound 0.8 µM
  relative viability: 1.14
LXF-289; first compound 2.53 µM
  relative viability: 1.09
NCI-H1355; first compound 0.08 µM
  relative viability: 0.829
NCI-H1355; first compound 0.253 µM
  relative viability: 0.691
NCI-H1355; first compound 0.8 µM
  relative viability: 0.751
NCI-H1355; first compound 2.53 µM
  relative viability: 0.756
NCI-H1651; first compound 0.08 µM
  relative viability: 0.172
NCI-H1651; first compound 0.253 µM
  relative viability: 0.191
NCI-H1651; first compound 0.8 µM
  relative viability: 0.19
NCI-H1651; first compound 2.53 µM
  relative viability: 0.184
NCI-H1666; first compound 0.08 µM
  relative viability: 0.753
NCI-H1666; first compound 0.253 µM
  relative viability: 0.726
NCI-H1666; first compound 0.8 µM
  relative viability: 0.765
NCI-H1666; first compound 2.53 µM
  relative viability: 0.728
NCI-H1944; first compound 0.08 µM
  relative viability: 0.417
NCI-H1944; first compound 0.253 µM
  relative viability: 0.369
NCI-H1944; first compound 0.8 µM
  relative viability: 0.392
NCI-H1944; first compound 2.53 µM
  relative viability: 0.406
NCI-H1975; first compound 0.08 µM
  relative viability: 0.855
NCI-H1975; first compound 0.253 µM
  relative viability: 0.742
NCI-H1975; first compound 0.8 µM
  relative viability: 0.749
NCI-H1975; first compound 2.53 µM
  relative viability: 0.765
NCI-H2087; first compound 0.08 µM
  relative viability: 0.658
NCI-H2087; first compound 0.253 µM
  relative viability: 0.668
NCI-H2087; first compound 0.8 µM
  relative viability: 0.63
NCI-H2087; first compound 2.53 µM
  relative viability: 0.48
NCI-H2342; first compound 0.08 µM
  relative viability: 0.407
NCI-H2342; first compound 0.253 µM
  relative viability: 0.44
NCI-H2342; first compound 0.8 µM
  relative viability: 0.504
NCI-H2342; first compound 2.53 µM
  relative viability: 0.389
NCI-H358; first compound 0.08 µM
  relative viability: 0.735
NCI-H358; first compound 0.253 µM
  relative viability: 0.323
NCI-H358; first compound 2.53 µM
  relative viability: 0.689
NCI-H596; first compound 0.08 µM
  relative viability: 0.661
NCI-H596; first compound 0.253 µM
  relative viability: 0.595
NCI-H596; first compound 0.8 µM
  relative viability: 0.831
NCI-H596; first compound 2.53 µM
  relative viability: 0.774
NCI-H650; first compound 0.08 µM
  relative viability: 0.413
NCI-H650; first compound 0.253 µM
  relative viability: 0.395
NCI-H650; first compound 0.8 µM
  relative viability: 0.52
NCI-H650; first compound 2.53 µM
  relative viability: 0.443
NCI-H661; first compound 0.08 µM
  relative viability: 0.776
NCI-H661; first compound 0.253 µM
  relative viability: 0.677
NCI-H661; first compound 0.8 µM
  relative viability: 0.791
NCI-H661; first compound 2.53 µM
  relative viability: 0.751
NCI-H838; first compound 0.08 µM
  relative viability: 0.756
NCI-H838; first compound 0.253 µM
  relative viability: 0.747
NCI-H838; first compound 0.8 µM
  relative viability: 0.827
NCI-H838; first compound 2.53 µM
  relative viability: 0.849
PC-3 [JPC-3]; first compound 0.08 µM
  relative viability: 1.1
PC-3 [JPC-3]; first compound 0.253 µM
  relative viability: 1.09
PC-3 [JPC-3]; first compound 0.8 µM
  relative viability: 1.21
PC-3 [JPC-3]; first compound 2.53 µM
  relative viability: 1.14
SK-MES-1; first compound 0.08 µM
  relative viability: 0.705
SK-MES-1; first compound 0.253 µM
  relative viability: 0.465
SK-MES-1; first compound 0.8 µM
  relative viability: 0.68
SK-MES-1; first compound 2.53 µM
  relative viability: 0.787
